This is an account of results in PMC6425991, “Peptide Super-Agonist Enhances T-Cell Responses to Melanoma” (Frontiers in Immunology, 2019).

Several values for one entry are separate records, joined by “and”; a condition that tells them apart may be missing. Equal entries are not always repeated.

One assay deals with MM909.24 TIL. The assay is described as follows: Intracellular cytokine staining (IFNγ) of TIL infusion product. It counts as cell-based, human. Particulars: T2 cells as antigen presenting cells, 5 h, peptide 10^−5-10^−12 M. As to the method:
Cells were then washed and stained with violet Live/Dead fixable dead cell stain, VIVID (Life Technologies, Paisley, UK) and for surface markers with anti-CD3 peridinin chlorophyll protein (PerCP) (clone BW264/56, Miltenyi Biotech, Bergisch Gladbach, Germany) and anti-CD8 allophycocyanin (APC)-Vio770 (clone BW135/80, Miltenyi Biotech) antibodies. Cells were prepared for ICS by incubating with Cytofix/Cytoperm™ (BD Biosciences), according to manufacturer's instructions, before staining for 20 min on ice with anti-IFNγ APC antibody (clone 45-15, Miltenyi Biotech). Cells were resuspended in FACS buffer (PBS supplemented with 2% FBS) before acquisition on BD FACS Canto II (BD Biosciences). Data was analysed using FlowJo Software (TreeStar, Ashland, OR, USA).

Another assay concerns CD8 T-cell clone ST8.24. The assay is described as follows: Peptide activation assay, MIP-1β ELISA. It counts as cell-based, human. Particulars: overnight, T2 cells, peptide titration. As to the method:
T-cell clones were cultured in R5 for 24 h prior to assay to reduce spontaneous activation. Assays were performed overnight in R5 in 96 U well plates with 3 × 10^5 T-cells and 6 × 10^5 T2 cells with and without desired peptides. The following day, supernatants were harvested, diluted with 70 μL R0 (R10 but without serum) and a half-area-well MIP-1β Enzyme-linked Immunosorbent Assay (ELISA) was carried out as per the manufacturer's instructions (R&D Systems, Minneapolis, MN). A decamer combinatorial peptide library (Pepscan Presto BV, Lelystad, The Netherlands) was stored and used as previously described ([19]). Individual peptides were synthesised to ≥95% purity (GL Biochem, Shanghai, China, or Peptide Protein Research Ltd, Hampshire, UK) stored at −80°C. […] Polyclonal T-cell populations were cultured overnight in R5 in order to reduce spontaneous activation. The following day an IFNγ Enzyme-Linked ImmunoSpot (ELISpot) assay was performed, using Multiscreen plates® (Millipore, Massachusetts, MA) as per the manufacturers' instructions (Mabtech, Nacka Strand, Sweden). 5 × 10^4 T-cells were screened against 10 candidate super-agonist peptides (described previously) at a concentration range of 10^−4 to 10^−8 mM. ELISpot data was collected using an ImmunoSpot® plate reader (CTL, Shaker Heights, Ohio, OH).
(In general: ELISA stands for enzyme-linked immunosorbent assay.)

The subject of assay [1] is CD8 T-cells of healthy donors. The settings on record: cited from earlier work. The source says:
Analysis of T-cells that responded to autologous tumour within the TIL infusion product used to cure an HLA A2^+ stage IV melanoma patient (code MM909.24), and also in the blood 6 months post cure, identified several persistent TCR clonotypes ([16], [17]). […] […]. Alteration of TCR contact residues has the advantage that the resultant APL are highly likely to be viewed as “nonself” and may therefore have increased potential for breaking immune tolerance. […]. PS-CPL have been explored as a way of selecting such “mimitopes” ([19], [33], [50]). This approach ...

Another assay addresses T1, HLA A2 (Homo sapiens, UniProt P04439, D140Y/D185E/D98H/E176V/E277Q/G131W/G231S/I119V/I121R/I166T/I218V/L300P/L318F/N151K/N90K/P208A/P217A/Q86G/Q94H/R138H/R169H/T345S).
T1 construct: T2 cells (TAP deficient HLA A2^+) were incubated overnight in serum-free media; endogenous in cells; host or cells: T2 cells
It is filed as binding.

In the case of “FATGIGIITV [super-agonist peptide of clone MEL5 from the authors' previous work]”, the “IFNγ production by TIL infusion product” value in the assay on MM909.24 TIL was “failed to induce IFNγ production”. Besides, the “activation of clone ST8.24 (MIP-1β ELISA)” value in the assay with CD8 T-cell clone ST8.24 was “failed to activate”. Moreover, the “healthy donors in which the peptide induced greater CD8 T-cell responses” value in assay [1] is on record as 6 of 10.
Consider HPVGEADYFEY, for which the “MFI of HLA A2 expression” value at HLA A2 is 183 and 202 and 199 and 159 and 231.
Turning to DRASFIKNL, on HLA A2, the “MFI of HLA A2 expression” value was 197 and 191 and 182 and 211 and 183 and 188.
